Laboratory results from BindingDB's records for doi:10.1016/0960-894X(95)00556-9 (1996).

Assay: Compound was evaluated for its ability to displace [3H]L-364718 from Cholecystokinin type A receptor from rat pancreas at dose of 0.03 umol/kg

Row | Structure (SMILES) | IC50
1 | Cc1cccc(NC(=O)N[C@@H]2N=C(c3ccccc3)c3ccccc3N(CC(=O)C(C)(C)C)C2=O)c1 [1-[(R)-1-(3,3-Dimethyl-2-oxo-butyl)-2-oxo-5-phenyl-2,3-dihydro-1H-benzo[e][1,4]diazepin-3-yl]-3-m-tolyl-urea] | 0.111 µM

Assay: Compound was evaluated for its ability to displace [3H]-L-364,718 from Cholecystokinin type A receptor from rat pancreas

Row | Structure (SMILES) | IC50
2 | Cc1cccc(NC(=O)NC2N=C(c3ccccc3)c3ccccc3N(CC(=O)C3(C)CCCCC3)C2=O)c1 (stereo not drawn) [1-{1-[2-(1-Methyl-cyclohexyl)-2-oxo-ethyl]-2-oxo-5-phenyl-2,3-dihydro-1H-benzo[e][1,4]diazepin-3-yl}-3-m-tolyl-urea] | > 10 µM
3 | Cc1cccc(NC(=O)NC2N=C(c3ccccc3)c3ccccc3N(CC(=O)CC3CCCCC3)C2=O)c1 (stereo not drawn) [1-[1-(3-Cyclohexyl-2-oxo-propyl)-2-oxo-5-phenyl-2,3-dihydro-1H-benzo[e][1,4]diazepin-3-yl]-3-m-tolyl-urea] | 0.48 µM
4 | Cc1cccc(NC(=O)NC2N=C(c3ccccc3)c3ccccc3N(CC(=O)C3(C)CCCC3)C2=O)c1 (stereo not drawn) [1-{1-[2-(1-Methyl-cyclopentyl)-2-oxo-ethyl]-2-oxo-5-phenyl-2,3-dihydro-1H-benzo[e][1,4]diazepin-3-yl}-3-m-tolyl-urea] | 0.293 µM
5 | Cc1cccc(NC(=O)N[C@@H]2N=C(c3ccccc3)c3ccccc3N(CC(=O)C3CCCC3)C2=O)c1 [1-[(R)-1-(2-Cyclopentyl-2-oxo-ethyl)-2-oxo-5-phenyl-2,3-dihydro-1H-benzo[e][1,4]diazepin-3-yl]-3-m-tolyl-urea] | 0.44 µM
6 | Cc1cccc(NC(=O)N[C@H]2N=C(c3ccccc3)c3ccccc3N(CC(=O)C3CCCC3)C2=O)c1 [1-[(S)-1-(2-Cyclopentyl-2-oxo-ethyl)-2-oxo-5-phenyl-2,3-dihydro-1H-benzo[e][1,4]diazepin-3-yl]-3-m-tolyl-urea] | 2.5 µM
7 | CCC(C)(C)C(=O)CN1C(=O)C(NC(=O)Nc2cccc(C)c2)N=C(c2ccccc2)c2ccccc21 (stereo not drawn) [1-[1-(3,3-Dimethyl-2-oxo-pentyl)-2-oxo-5-phenyl-2,3-dihydro-1H-benzo[e][1,4]diazepin-3-yl]-3-m-tolyl-urea] | 0.72 µM
8 | Cc1cccc(NC(=O)NC2N=C(c3ccccc3)c3ccccc3N(CC(=O)C(C)C)C2=O)c1 (stereo not drawn) [1-[1-(3-Methyl-2-oxo-butyl)-2-oxo-5-phenyl-2,3-dihydro-1H-benzo[e][1,4]diazepin-3-yl]-3-m-tolyl-urea] | 1.2 µM
